“Also recorded” adds a separate entry of the source.
How the values were obtained:
[1] = test system: CD63-Tluc-CD9-EmGFP THP-1 reporter cells; experiment: CD63 Tluc-CD9 EmGFP THP-1 reporter cell assay (EV/exosome release); assay type: cell-based, human; conditions: 634 analogs 10 μM, 48 hours
Procedure: (§1) All these analogs were evaluated for induction of IL-12 cytokine at 10 μM, followed by dose response IL-12 induction for selected analogs. These analogs were also evaluated for exosome release by quantitating EV release in the supernatant post 48 hours incubation with CD63-Tluc-CD9-EmGFP THP-1 reporter cells.
In the HTS using CD63-Tluc-CD9EmGFP reporter cells (CD63 HTS), PMA (10 ng/ml) was used as a positive control (Shpigelman et al., 2021) and 0.5% DMSO was used as negative control (vehicle, Veh). Briefly, the harvested cells were resuspended in assay media containing 10% exosome-depleted […] (#A2720801, Thermo Fisher Scientific) and plated at 2×10^5 cells/mL (50 μL/well of 384-well plates) (#3674, Corning). Test compounds were added at a final concentration of 10 μM to cells and incubated for 48 hours at 37° C. Subsequently, the plate was centrifuged, supernatant (25 μL) was transferred, and chemiluminescent was measured as recombinant luciferase activity (RLU) after 10 minutes incubation with TurboLuc assay reagent (TurboLuc™ One-Step Glow Assay kit, Thermo Fisher Scientific). The response that measures activation and subsequent release of EVs was calculated using the following formula; % response=100×(compound RLU−average Veh RLU)/(average PMA RLU−average Veh RLU). The viability of cells was assessed using PrestoBlue reagent (Thermo Fisher Scientific). Briefly, PrestoBlue reagent (2.5 μl) was added to the remaining cells and incubated for 30 minutes at room temperature, followed by fluorescence readout at (Ex 560 nm/Em 590 nm) which was normalized to fluorescence data of the Veh wells within the plate to obtain “% viability” calculated as 100×(compound fluorescence/average Veh fluorescence).
CD63 Tluc-CD9 EmGFP THP-1 reporter cell assay. CD63 Tluc CD9 EmGFP THP-1 reporter cell (designated as CD63 Tluc reporter cells) were incubated with 10 μM test compounds, ION (1 μM), or 0.5% DMSO (negative control) in the RPMI 1640 supplemented with exosome-depleted FBS at 5×10^4 cells in 200 μL/well for a 96-well plate for 48 hours at 37° C. Subsequently, the plate was centrifuged, the supernatant was transferred, and chemiluminescence was measured by TurboLuc™ Luciferase One-Step Glow Assay Kit. The response that measures activation and subsequent release of EVs was calculated using the following formula; % response=100×(compound RLU−average Veh RLU)/(average PMA RLU−average Veh RLU).

[2] = test system: mBMDCs; experiment: Intracellular Ca2+ influx (Fura-2/Fura-8) in mBMDCs; assay type: cell-based, mouse; conditions: 10 μM, vs Veh 0.5% DMSO / #634
[3] = test system: TLR4; experiment: TLR4 agonism in murine and human HEK-TLR4 reporter cells; assay type: cell-based
From the text: FIG. 37. TLR4 agonism assays with analogs of 2B182c in human and murine TLR4 reporter cells.

[4] = test system: mBMDCs; experiment: Cell viability / cytotoxicity in mBMDCs (MTT); assay type: cell-based, mouse; conditions: for toxicity in exosome-depleted FBS medium: mBMDCs, 10 μM, 48 hours, MTT; for cytotoxicity of Ca influx inhibitors / chelators in mBMDC culture: 48 hours culture
Procedure: FIGS. 30A-30B. […] After 48 hours incubation, cell viability was determined by MTT assay.
mBMDCs (10^5 cells/200 μL/well) were treated with 10 and 5 μM of a test compound in 96-well plates overnight. After 18 hours of drug treatment, MTT (0.5 mg/ml) was added to each well. The cells were lysed after 6-8 hours incubation, and absorbance values at 570 and 650 nm were measured. PrestoBlue reagent (#A13261, Thermo Fisher Scientific) was used for cell viability assay in CD63 HTS as described earlier.
Cell viability assay. mBMDCs (2×10^6 cells/200 μL/well in RPMI1640 supplemented with dialyzed 10% FBS, or 1.5×10^6 cells/200 μL/well in RPMI1640 supplemented with 10% exosome depleted FBS) were treated with 10 μM of each test compound in 96-well plates. After 46-48 hours of compound treatment, MTT (0.5 mg/mL) was added to each well. The cells were lysed after overnight incubation, and absorbance values at 570 and 650 nm were measured.

[5] = test system: mBMDCs; experiment: IL-12 induction in mBMDCs (ELISA); assay type: cell-based, mouse; conditions: 10 μM / dose response
Procedure: as §1
mBMDCs (10^5 cells/200 μL/well) were plated in wells of 96-well plates and treated with test compound (5 μM or 10 μM) or vehicle (0.5% DMSO) overnight.

[6] = test system: mBMDCs; experiment: EV release from mBMDCs (differential ultracentrifugation, MRPS); conditions: 10 μM, 46-48 h, vs Veh

| Structure (SMILES) | intracellular Ca^2+ influx by 634 and its SAR analogs (Fura-2) [2] | TLR4 agonistic activity [3] | other results |
| --- | --- | --- | --- |
| CCNC(=O)c1c(NS(=O)(=O)c2cccc3c2N=S=N3)sc(C)c1C [2E241, 2-(benzo[c][1,2,5]thiadiazole-4-sulfonamido)-N-ethyl-4,5-dimethylthiophene-3-carboxamide] | loss of potency; also recorded: did not induce Ca^2+ influx in mBMDCs; also recorded: negative |  | luciferase activities in the culture supernatant of CD63 Tluc reporter cells [1]: did neither increase luciferase activities |
| Cn1c2ccc(-c3ccco3)cc2c2nc(SCC(=O)NC3CCCCC3)n(-c3ccc(O)c(O)c3)c(=O)c21 [2E255] |  | completely inactive |  |
| CCOC(=O)c1c(N(C)S(=O)(=O)c2cccc3c2N=S=N3)sc(C)c1C [2F186, Ethyl 4,5-dimethyl-2-(N-methylbenzo[c][1,2,5]thiadiazole-4-sulfonamido)thiophene-3-carboxylate] | did not induce Ca^2+ influx in mBMDCs; also recorded: negative |  | luciferase activities in the culture supernatant of CD63 Tluc reporter cells [1]: did neither increase luciferase activities |
| Cn1c2ccc(-c3ccco3)cc2c2nc(SCC(=O)NC3CCCCC3)n(-c3cccc(N)c3)c(=O)c21 [2G023a] |  | equipotent to compound 28182c |  |
| Cn1c2ccc(-c3ccco3)cc2c2nc(SCC(=O)NC3CCCCC3)n(-c3cccc(O)c3)c(=O)c21 [2G053] |  | equipotent to compound 28182c |  |
| CC(=O)Oc1cccc(-n2c(SCC(=O)NC3CCCCC3)nc3c4cc(-c5ccco5)ccc4n(C)c3c2=O)c1 [2G107] |  | potent |  |
| CCCCCCCCC(=O)Oc1cccc(-n2c(SCC(=O)NC3CCCCC3)nc3c4cc(-c5ccco5)ccc4n(C)c3c2=O)c1 [2G108] |  | potent |  |
| CC(=O)Nc1cccc(-n2c(SCC(=O)NC3CCCCC3)nc3c4cc(-c5ccco5)ccc4n(C)c3c2=O)c1 [2G112] |  | did not retain equal potency |  |
| CCCCCCCCC(=O)Nc1cccc(-n2c(SCC(=O)NC3CCCCC3)nc3c4cc(-c5ccco5)ccc4n(C)c3c2=O)c1 [2G113] |  | did not retain equal potency |  |
| CCCOC(=O)c1c(NS(=O)(=O)c2cccc3c2N=S=N3)sc(C)c1C [2G176, Propyl 2-(benzo[c][1,2,5]thiadiazole-4-sulfonamido)-4,5-dimethylthiophene-3-carboxylate] | Ca^2+ influx positive |  |  |
| CCCCCCCC/C=C\CCCCCCCC(=O)OC[C@H](COP(=O)(O)OCCNC(=O)CCCC(=O)Oc1cccc(-n2c(SCC(=O)NC3CCCCC3)nc3c4cc(-c5ccco5)ccc4n(C)c3c2=O)c1)OC(=O)CCCCC/C=C\CCCCCCCC [2G177] |  | slightly less potent than 2G053; also recorded: the potency at the highest concentration was better |  |
| Cc1sc(NS(=O)(=O)c2cccc3nsnc23)c(C(=O)OC(C)(C)C)c1C [2G179 h, Tert-butyl 2-(benzo[c][1,2,5]thiadiazole-4-sulfonamido)-4,5-dimethylthiophene-3-carboxylate] |  |  | toxicity in exosome-depleted FBS medium [4]: higher toxicity |
| COC(=O)c1c(NS(=O)(=O)c2cccc3c2N=S=N3)sc(C)c1C [2G179a, Methyl 2-(benzo[c][1,2,5]thiadiazole-4-sulfonamido)-4,5-dimethylthiophene-3-carboxylate] | Ca^2+ influx positive |  |  |
| CCCCCCOC(=O)c1c(NS(=O)(=O)c2cccc3nsnc23)sc(C)c1C [2G179b, Hexyl 2-(benzo[c][1,2,5]thiadiazole-4-sulfonamido)-4,5-dimethylthiophene-3-carboxylate] | increased intracellular Ca^2+ levels more than that of #634 |  | toxicity in exosome-depleted FBS medium [4]: higher toxicity |
| Cc1sc(NS(=O)(=O)c2cccc3c2N=S=N3)c(C(=O)OC(C)C)c1C [2G179c, Isopropyl 2-(benzo[c][1,2,5]thiadiazole-4-sulfonamido)-4,5-dimethylthiophene-3-carboxylate] | increased intracellular Ca^2+ levels more than that of #634; also recorded: Ca^2+ influx positive |  |  |
| Cc1sc(NS(=O)(=O)c2cccc3nsnc23)c(C(=O)OCCC(C)C)c1C [2G179d, Isopentyl 2-(benzo[c][1,2,5]thiadiazole-4-sulfonamido)-4,5-dimethylthiophene-3-carboxylate] | increased intracellular Ca^2+ levels more than that of #634 |  | toxicity in exosome-depleted FBS medium [4]: higher toxicity |
| Cc1sc(NS(=O)(=O)c2cccc3nsnc23)c(C(=O)OC2CCCCC2)c1C [2G179e, Cyclohexyl 2-(benzo[c][1,2,5]thiadiazole-4-sulfonamido)-4,5-dimethylthiophene-3-carboxylate] |  |  | toxicity in exosome-depleted FBS medium [4]: higher toxicity |
| Cc1sc(NS(=O)(=O)c2cccc3nsnc23)c(C(=O)OCc2ccccc2)c1C [2G179f, Benzyl 2-(benzo[c][1,2,5]thiadiazole-4-sulfonamido)-4,5-dimethylthiophene-3-carboxylate] |  |  | toxicity in exosome-depleted FBS medium [4]: higher toxicity |
| Cc1sc(NS(=O)(=O)c2cccc3nsnc23)c(C(=O)Oc2ccccc2)c1C [2G179g, Phenyl 2-(benzo[c][1,2,5]thiadiazole-4-sulfonamido)-4,5-dimethylthiophene-3-carboxylate] | lost potency; also recorded: Ca^2+ influx positive |  |  |
| Cc1cc(NS(=O)(=O)c2cccc3nsnc23)sc1C [2G182] | loss of potency |  |  |
| Cn1c2ccc(-c3ccco3)cc2c2nc(SCC(=O)NC3CCCCC3)n(-c3cccc(OCOP(=O)(O)O)c3)c(=O)c21 [2G202] |  | weakly active |  |
| Cc1sc(NS(=O)(=O)c2cccc3nsnc23)c(C(=O)O)c1C [2H013, 2-(benzo[c][1,2,5]thiadiazole-4-sulfonamido)-4,5-dimethylthiophene-3-carboxylic acid] | did not induce Ca^2+ influx in mBMDCs; also recorded: negative |  | luciferase activities in the culture supernatant of CD63 Tluc reporter cells [1]: did neither increase luciferase activities |
| c1ccc(-c2cn(-c3cncc(-c4cccs4)c3)nn2)cc1 [2H050] |  |  | IL-12 induction [5]: significantly enhanced cytokine IL-12 induction |
| COc1ccc(-c2nnc(-c3cccnc3)o2)cc1OC [#1310] |  |  | IL-12 induction [5]: as potent as #645 |
| Clc1ccc(-c2nnc(-c3cccnc3)o2)cc1 [#1311] |  |  | IL-12 induction [5]: as potent as #645 |
| CC(=O)OCOC(=O)CN(CC(=O)OCOC(C)=O)c1ccccc1OCCOc1ccccc1N(CC(=O)OCOC(C)=O)CC(=O)OCOC(C)=O [BAPTA-AM, reference compound] |  |  | number of EV particles released in the culture supernatant [6]: increased EV release by mBMDC; also recorded: enhanced particle release from dead and dying cells; cytotoxicity of Ca influx inhibitors / chelators in mBMDC culture [4]: cytotoxic; also recorded: toxic |
| Cc1nnsc1C(=O)Nc1ccc(-n2nc(C(F)(F)F)cc2C(F)(F)F)cc1 [BTP2, reference compound] |  |  | number of EV particles released in the culture supernatant [6]: increased EV release by mBMDC; cytotoxicity of Ca influx inhibitors / chelators in mBMDC culture [4]: cytotoxic |
| O=C(O)CN(CCOCCOCCN(CC(=O)O)CC(=O)O)CC(=O)O [EGTA, reference compound] |  |  | number of EV particles released in the culture supernatant [6]: increased EV release by mBMDC; also recorded: enhanced particle release from dead and dying cells; cytotoxicity of Ca influx inhibitors / chelators in mBMDC culture [4]: cytotoxic; also recorded: toxic |

Reference: patent publication US20250281465A1, “MOLECULES THAT ENHANCE EXTRACELLULAR VESICLE RELEASE” (priority 2022, published 2025)
